From paper PMC12116762, “Topobexin targets the Topoisomerase II ATPase domain for beta isoform-selective inhibition and anthracycline cardioprotection” (Nature Communications, 2025)
Several values for one entry are separate records, joined by “and”; a condition that tells them apart may be missing. Identical values can stand only once.

Key:
YFP-TOP2B = biological target: T1, YFP-TOP2B (Homo sapiens, UniProt Q02880); assay: FRAP analysis, YFP-TOP2B in HEK293F cells; format: cell-based; details: 0.25 and 1 μM
T1 construct: Using recombinant full-length human TOP2A and TOP2B enzymes; expressed in transfected cells; host or cells: HEK293F
T1 sequence (Q02880 1-1621 isoform Q02880-2): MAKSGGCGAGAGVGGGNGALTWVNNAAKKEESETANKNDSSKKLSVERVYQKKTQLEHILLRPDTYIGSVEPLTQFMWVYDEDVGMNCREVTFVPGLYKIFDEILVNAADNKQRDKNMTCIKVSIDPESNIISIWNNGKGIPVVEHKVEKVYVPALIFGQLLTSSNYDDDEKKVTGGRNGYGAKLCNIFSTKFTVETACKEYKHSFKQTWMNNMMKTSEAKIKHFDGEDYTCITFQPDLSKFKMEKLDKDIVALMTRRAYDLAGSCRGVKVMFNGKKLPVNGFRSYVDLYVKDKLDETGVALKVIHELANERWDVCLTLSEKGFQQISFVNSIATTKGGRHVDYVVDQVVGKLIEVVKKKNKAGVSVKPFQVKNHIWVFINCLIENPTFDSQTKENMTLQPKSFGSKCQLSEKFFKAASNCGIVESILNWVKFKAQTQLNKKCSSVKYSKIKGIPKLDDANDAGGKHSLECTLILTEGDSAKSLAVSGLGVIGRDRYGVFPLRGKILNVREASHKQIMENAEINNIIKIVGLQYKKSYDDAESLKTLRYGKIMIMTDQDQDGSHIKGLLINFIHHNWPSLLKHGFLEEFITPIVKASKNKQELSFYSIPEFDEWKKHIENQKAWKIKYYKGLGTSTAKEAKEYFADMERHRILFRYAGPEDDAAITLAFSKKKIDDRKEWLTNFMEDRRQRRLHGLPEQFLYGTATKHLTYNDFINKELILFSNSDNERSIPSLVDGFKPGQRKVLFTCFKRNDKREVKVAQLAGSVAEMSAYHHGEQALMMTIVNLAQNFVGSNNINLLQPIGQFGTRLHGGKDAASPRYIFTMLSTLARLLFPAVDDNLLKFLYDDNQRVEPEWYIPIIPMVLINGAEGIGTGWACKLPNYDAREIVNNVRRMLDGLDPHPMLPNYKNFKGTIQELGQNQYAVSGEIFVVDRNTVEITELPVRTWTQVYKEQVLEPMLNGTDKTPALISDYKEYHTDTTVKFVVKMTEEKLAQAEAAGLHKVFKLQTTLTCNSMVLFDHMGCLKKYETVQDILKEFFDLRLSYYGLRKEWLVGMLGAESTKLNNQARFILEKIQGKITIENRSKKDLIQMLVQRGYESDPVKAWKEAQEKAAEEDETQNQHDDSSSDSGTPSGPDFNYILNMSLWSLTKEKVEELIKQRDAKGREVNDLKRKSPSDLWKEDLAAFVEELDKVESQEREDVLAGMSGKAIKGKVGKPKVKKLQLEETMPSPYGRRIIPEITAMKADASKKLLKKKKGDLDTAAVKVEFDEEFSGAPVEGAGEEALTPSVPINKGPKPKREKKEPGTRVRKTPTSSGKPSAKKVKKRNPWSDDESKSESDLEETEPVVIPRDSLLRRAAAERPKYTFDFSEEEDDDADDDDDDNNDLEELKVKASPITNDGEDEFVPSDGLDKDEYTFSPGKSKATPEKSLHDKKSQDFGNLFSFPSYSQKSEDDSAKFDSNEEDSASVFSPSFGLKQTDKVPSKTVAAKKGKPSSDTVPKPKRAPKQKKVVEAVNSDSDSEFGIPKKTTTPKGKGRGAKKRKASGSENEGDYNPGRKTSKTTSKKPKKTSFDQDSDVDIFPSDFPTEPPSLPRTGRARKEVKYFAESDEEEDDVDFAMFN
Protocol: HEK293F cells were transfected with DNA plasmids encoding yellow-fluorescent protein (YFP)-TOP2A or YFP-TOP2B (the same DNA constructs for mammalian protein expression and purification) using Lipofectamine 2000 (Thermo Fisher Scientific). Cells were cultured for 24 h post transfection and YFP signals were confirmed prior to FRAP experiments. Transfected cells were plated on glass-bottomed culture dishes (Matsunami) and rested overnight. The next day, each dish was pre-incubated with the indicated inhibitor treatment or DMSO control for 15 min prior to FRAP experiment. Each set of experiments was repeated on at least two different days using newly transfected cells each time. Live-cell imaging was done using a LSM 980 microscope (Carl Zeiss Microscopy, LLC). YFP signal was excited at 508 nm at 2% laser power and detected through a 516–604 nm range. A small area within the nucleus (purple box) is manually selected for fluorescence bleaching at 100% laser power for 50 iterations. Inhibition of TOP2 by obex inhibitors was detected by impairment in fluorescence recovery at 15 s post bleaching, as a lack of inhibition allows for TOP2 diffusion throughout the nucleus.

[1] = biological target: T2, TOP2B-DNA covalent complex (Homo sapiens, UniProt Q02880); assay: RADAR assay, etoposide-induced TOP2B-DNA covalent complex in HEK293F cells; format: cell-based; details: for TOP2B spot intensity: independent replicates
T2 construct: endogenous in cells; host or cells: HEK293F
T2 sequence (Q02880 2-1626 limits assumed, one chain of several): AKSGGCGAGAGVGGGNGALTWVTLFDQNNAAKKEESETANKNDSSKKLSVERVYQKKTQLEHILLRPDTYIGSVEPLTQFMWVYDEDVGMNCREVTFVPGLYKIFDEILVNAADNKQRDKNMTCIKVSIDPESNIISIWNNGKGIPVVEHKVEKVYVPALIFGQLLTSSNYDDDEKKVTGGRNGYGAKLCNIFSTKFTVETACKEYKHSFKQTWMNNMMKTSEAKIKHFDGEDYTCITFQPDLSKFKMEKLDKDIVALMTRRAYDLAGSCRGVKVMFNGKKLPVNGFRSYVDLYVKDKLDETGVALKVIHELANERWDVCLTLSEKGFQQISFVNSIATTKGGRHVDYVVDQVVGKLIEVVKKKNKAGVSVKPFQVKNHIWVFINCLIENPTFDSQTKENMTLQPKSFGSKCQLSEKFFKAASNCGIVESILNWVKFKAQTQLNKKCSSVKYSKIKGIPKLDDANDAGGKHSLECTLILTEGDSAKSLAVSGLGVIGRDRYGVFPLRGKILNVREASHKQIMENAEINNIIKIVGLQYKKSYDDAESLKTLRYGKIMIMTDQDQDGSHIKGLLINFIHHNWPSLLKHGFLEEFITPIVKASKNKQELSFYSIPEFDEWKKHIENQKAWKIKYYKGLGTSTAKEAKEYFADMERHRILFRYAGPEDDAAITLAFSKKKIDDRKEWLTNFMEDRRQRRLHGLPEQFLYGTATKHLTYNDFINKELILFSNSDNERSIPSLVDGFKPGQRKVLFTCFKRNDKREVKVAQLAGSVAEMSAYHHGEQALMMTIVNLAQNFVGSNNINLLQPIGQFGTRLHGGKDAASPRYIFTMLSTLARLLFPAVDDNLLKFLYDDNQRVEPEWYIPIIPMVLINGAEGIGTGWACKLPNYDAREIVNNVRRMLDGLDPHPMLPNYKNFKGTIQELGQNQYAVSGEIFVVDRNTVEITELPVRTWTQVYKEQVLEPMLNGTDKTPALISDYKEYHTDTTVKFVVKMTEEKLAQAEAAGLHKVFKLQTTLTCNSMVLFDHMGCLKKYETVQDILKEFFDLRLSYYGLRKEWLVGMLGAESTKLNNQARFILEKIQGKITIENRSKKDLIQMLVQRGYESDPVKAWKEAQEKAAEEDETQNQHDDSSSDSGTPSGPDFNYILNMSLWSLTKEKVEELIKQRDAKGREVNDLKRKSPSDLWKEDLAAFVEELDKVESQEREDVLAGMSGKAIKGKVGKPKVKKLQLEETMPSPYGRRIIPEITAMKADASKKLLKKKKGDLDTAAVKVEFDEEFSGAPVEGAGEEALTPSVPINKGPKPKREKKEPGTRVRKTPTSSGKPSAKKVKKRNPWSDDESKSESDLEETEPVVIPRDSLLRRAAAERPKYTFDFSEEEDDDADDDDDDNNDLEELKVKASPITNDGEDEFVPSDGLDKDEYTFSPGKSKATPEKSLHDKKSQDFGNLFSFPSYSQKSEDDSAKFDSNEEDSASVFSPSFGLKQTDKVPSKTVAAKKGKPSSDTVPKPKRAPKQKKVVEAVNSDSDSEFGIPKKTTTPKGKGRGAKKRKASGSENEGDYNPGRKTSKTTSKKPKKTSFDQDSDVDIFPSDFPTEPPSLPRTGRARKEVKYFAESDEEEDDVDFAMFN
Protocol: HEK293F cells were plated at 3 × 10^5 cells per well and grown overnight. […] Upon removal of media, cells in each well were immediately lysed with 750 µL DNAzol (Molecular Research Center, Inc.) and the DNA was precipitated by addition of 375 µL of 100% ethanol. This step was then repeated to eliminate protein aggregates. Precipitate from each sample was pelleted via centrifugation at 4 °C and max speed for 5 min. The pellets were washed twice with buffer containing 20 mM Tris pH 7.5, 1 mM EDTA pH 8.0, 50 mM NaCl, 50% EtOH, and at the end of each wash, centrifugation at 4000 × g for 2 min was repeated to isolate the DNA pellets. The pellets were washed in 75% EtOH and then collected by centrifugation at 4 °C and max speed for 5 min. The supernatant was removed via pipetting, and the remaining pellets were air dried for 5 min before 50 µL 8 mM NaOH and 0.1% Tween-20 was added to each pellet. Once no visible precipitate remained, each mixture was supplemented with 5 µL of Benzonase buffer containing 500 mM Tris pH 8.0, 10 mM MgCl2, 1/1000 Roche complete protease inhibitor cocktail (Millipore Sigma) and 40 units Benzonase (Millipore Sigma) followed by 30 to 60 min incubation at 37 °C until the pellets were fully dissolved. The DNA content from each sample was quantified on a nanodrop, and 10 µg of DNA was diluted to a final volume of 200 µL in 8 mM NaOH and 0.1% Tween. The samples were applied over the Whatman Minifold I dot blot apparatus (Cytiva) and collected on a PVDF membrane (Thermo Fisher Scientific). The membrane was washed three times with 8 mM NaOH and 0.1% Tween-20 solution prior to removal and blocking with the same wash solution containing 1 mg/mL BSA. Western blotting was carried out on an iBind (Thermo Fisher Scientific) and TOP2 proteins were detected using isoform-specific antibody against full length TOP2A (1:250 dilution; HT2A21, Inspiralis) and TOP2B (1:500 dilution; 611493, BD Biosciences) and visualized with anti-rabbit (1:1000 dilution; 926-68071, LI-COR Bio) and anti-mouse (1:1000 dilution; 926-32210, LI-COR Bio) secondary antibodies in iBind running buffer. The blots were imaged on a LI-COR Odyssey Fc and analysed using ImageStudio. Each presented data point was obtained from distinct sample.

[2] = Plasma pharmacokinetics in rabbits (LC-MS/MS); format: in vivo, rabbit
Protocol: Six rabbits were used to determine the plasma pharmacokinetics of topobexin (9). The compound was used as a dihydrochloride and was dissolved right before administration in sterile saline (10 mg of free base/ml); pH was optimized using NaOH and the solution was filtered through an antimicrobial filter (0.22 µm porosity, Carl Roth GmbH + Co. KG, Germany). The drug was administered i.v. using marginal ear vein at 10 mg/kg (counted as a free base) in a 20 min infusion. The dose, route of administration, and timing of infusion were determined based on preliminary pharmacokinetic experiments. Blood for pharmacokinetic analysis was collected from the central artery in the contralateral ear before drug administration (blank) and in preselected time intervals after drug administration (5 min to 10 h). Blood was collected in BD Vacutainer tubes (BD Biosciences, Plymouth, UK) containing lithium heparin. All samples were immediately centrifuged (5 min, 3000 × g), plasma was harvested and frozen immediately in liquid nitrogen and the samples were stored at -80 °C until analysis.
The concentration of topobexin (9) was determined in plasma samples using an analytical method developed and validated for this purpose. Briefly, rabbit plasma (50 μl) was spiked with internal standard (compound 14), precipitated with ice-cold acetonitrile (200 μl), vortexed (30 s), and centrifuged (10 min, 9520 × g, 4 °C). The resulting supernatant was filtered through a 0.45 μm porosity filter (Milex – Hv, Merck Milipore, Darmstadt, Germany) and analyzed using UHPLC-MS. Agilent 1290 Infinity II LC with Triple Quad LC/MS (6400 series), a Jet Stream Electrospray and Mass Hunter software (Agilent, Santa Clara, CA, USA) were used for the analyzes and data treatment, respectively. Chromatographic separation was achieved on the Zorbax Eclipse Plus C18 column (50 × 2.1 mm, 1.8 μm, […], Dublin, Ireland). The mobile phase composed of part A (0.0025% formic acid) and part B (acetonitrile) was mixed in the following gradient: 0–1 min (10% B), 1–3 (10–60% B), 3–3.5 min (60% B), 3.51–5 min (80% B), 5.01–6 min (10% B). The flow rate of mobile phase was 0.3 mL/min and 2 μL of the sample were injected onto the column. The linearity of the method was verified within the concentration range of 1 to 1000 nM topobexin (9) in rabbit plasma.

[3] = iv, rabbit plasma, 10 mg/kg, 20 min i.v. infusion

Which results are given for `CCCc1cc(=O)oc2c(C(=O)N3CCCc4ccccc43)c(OCCN3CCN(C)CC3)ccc12` [topobexin (9)]?
recovery of fluorescence for TOP2B in photobleached area (YFP-TOP2B): impaired; TOP2B spot intensity ([1]; Cmpd 9 0.1 μM + etoposide 5 μM): 104.7 and 108 and 35.48 and 44.18 and 86.39; TOP2B spot intensity ([1]; Cmpd 9 1 μM + etoposide 5 μM): 30.03 and 46.96 and 8.418 and 33.86 and 32.47; TOP2B spot intensity ([1]; Cmpd 9 10 μM + etoposide 5 μM): 9.497 and 0.7143 and 3.351 and 13.57 and 7.34; TOP2B spot intensity ([1]; Cmpd 9 10 μM, etoposide 0, background subtracted): 0.7839 and 1.705 and 2.435 and 8.291 and 6.459; concentration significantly reducing TOP2B-DNA CC ([1]; etoposide-induced, HEK293F): 1 µM; Plasma concentration ([2]; 10 min, individual subjects): 9.134 µM and 17.429 µM and 15.678 µM and 15.114 µM and 12.648 µM; Plasma concentration ([2]; 20 min, individual subjects): 11.689 µM and 11.373 µM and 12.322 µM and 16.573 µM and 12.398 µM; Plasma concentration ([2]; 40 min, individual subjects): 4.374 µM and 4.139 µM and 3.247 µM and 3.779 µM and 3.693 µM; Plasma concentration ([2]; 60 min, individual subjects): 1.755 µM and 3.643 µM and 3.122 µM and 2.610 µM and 3.293 µM and 2.847 µM; Plasma concentration ([2]; 120 min, individual subjects): 1.524 µM and 1.569 µM and 1.234 µM and 1.184 µM and 1.188 µM; Plasma concentration ([2]; 240 min, individual subjects): 0.456 µM and 0.440 µM and 0.629 µM and 0.503 µM and 0.425 µM; Plasma concentration ([2]; 360 min, individual subjects): 0.161 µM and 0.144 µM and 0.140 µM and 0.225 µM and 0.134 µM; Plasma concentration ([2]; 480 min, individual subjects): 0.110 µM and 0.051 µM and 0.053 µM and 0.103 µM and 0.049 µM; Plasma concentration ([2]; 600 min, individual subjects): 0.019 μM (2×) and 0.026 μM (2×) and 0.018 μM; Cmax [2, 3]: 13.5 ± 3.2 µM; Tmax [2, 3]: 10 min; concentrations present in rabbits during daunorubicin administration ([2]; plasma): ≤ 3 µM; Plasma concentration ([2]; rabbit, 10 mg/kg 20 min i.v. infusion, 5 min, individual subjects, 10 mg/kg): 7.668 µM and 14.456 µM and 10.833 µM and 11.650 µM and 11.714 µM; time with plasma concentration ≥ 1 μM ([2]; rabbit, 10 mg/kg, 20 min i.v. infusion): 2.5 h; concentration at 10 min ([2]; rabbit, plasma, intravenous, 10 mg/kg, 10 min, individual subjects): 10.8 µM; concentration at 20 min ([2]; rabbit, plasma, intravenous, 10 mg/kg, 20 min, individual subjects): 10.5 µM; concentration at 40 min ([2]; rabbit, plasma, intravenous, 10 mg/kg, 40 min, individual subjects): 3.47 µM; concentration at 120 min ([2]; rabbit, plasma, intravenous, 10 mg/kg, 120 min, individual subjects): 1.32 µM; concentration at 240 min ([2]; rabbit, plasma, intravenous, 10 mg/kg, 240 min, individual subjects): 0.429 µM; concentration at 360 min ([2]; rabbit, plasma, intravenous, 10 mg/kg, 360 min, individual subjects): 0.155 µM; concentration at 600 min ([2]; rabbit, plasma, intravenous, 10 mg/kg, 600 min, individual subjects): 0.025 µM; concentration at 5 min ([2]; rabbit, plasma, iv, 10 mg/kg, 10 mg/kg 20 min i.v. infusion, 5 min, individual subjects): 11.1 µM
